Measurements from patent US20090062253A1, “HETEROCYCLODIAZEPINE CANNABINOID RECEPTOR MODULATORS FOR TREATMENT OF DISEASE” (KALYPSYS, INC., priority 2007, published 2009).

Assays:
Human CB2 = biological target: T1, Human CB2 (Homo sapiens, UniProt P34972); experiment: Human CB2 Radioligand Binding Assay; details: membranes from stably transfected CHO CB2 cells; competition with [3H] CP-55,940; read-out: CB2 Ligand Binding Asssay
T1 construct: expressed in transfected cells; membrane preparation
Method in brief: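 Filtration competition against [3H]CP-55,940 at its Kd on membranes from CHO cells stably expressing human CB2; compounds at 10 uM single point or dose-response, 1% DMSO. Buffer 50 mM Tris-HCl pH 7.4, EGTA, MgCl2, 5.0 mg/ml BSA; 90 min at 30° C, scintillation read; 100 nM CP-55,940 = 100%.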

[1] = biological target: T2, human cannabinoid receptor type 1 (Homo sapiens, UniProt P21554); experiment: Human CB1 Radioligand Binding Assay (basis of selectivity CB2 vs. CB1)
T2 construct: purchased Perkin Elmer RBHCB1M; host or cells: HEK 293 EBNA cells
T2 sequence (P21554 whole entry): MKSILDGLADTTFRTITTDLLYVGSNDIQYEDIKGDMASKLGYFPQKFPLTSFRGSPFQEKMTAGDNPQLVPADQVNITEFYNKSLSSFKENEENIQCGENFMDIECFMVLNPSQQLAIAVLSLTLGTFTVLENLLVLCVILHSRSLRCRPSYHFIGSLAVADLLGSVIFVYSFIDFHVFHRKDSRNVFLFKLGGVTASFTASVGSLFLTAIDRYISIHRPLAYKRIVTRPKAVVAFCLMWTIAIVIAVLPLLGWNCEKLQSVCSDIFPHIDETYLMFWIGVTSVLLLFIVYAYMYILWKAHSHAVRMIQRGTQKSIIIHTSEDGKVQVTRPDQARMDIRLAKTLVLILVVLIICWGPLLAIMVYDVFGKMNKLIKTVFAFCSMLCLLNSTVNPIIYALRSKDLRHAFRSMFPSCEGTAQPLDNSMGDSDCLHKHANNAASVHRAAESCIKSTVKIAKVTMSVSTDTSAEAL
Method in brief: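 Filtration competition binding against [3H] CP-55,940 at its Kd, using membranes from HEK 293 EBNA cells expressing human CB1; 90 minutes at 30° C in 50 mM Tris-HCl pH 7.4, 2.5 mM EDTA, 5 mM MgCl2, 5.0 mg/ml BSA, 1% DMSO. Single point 10 uM or dose-response; 100 nM CP-55,940 defined 100% efficacy.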

T1 sequence (P34972 whole entry): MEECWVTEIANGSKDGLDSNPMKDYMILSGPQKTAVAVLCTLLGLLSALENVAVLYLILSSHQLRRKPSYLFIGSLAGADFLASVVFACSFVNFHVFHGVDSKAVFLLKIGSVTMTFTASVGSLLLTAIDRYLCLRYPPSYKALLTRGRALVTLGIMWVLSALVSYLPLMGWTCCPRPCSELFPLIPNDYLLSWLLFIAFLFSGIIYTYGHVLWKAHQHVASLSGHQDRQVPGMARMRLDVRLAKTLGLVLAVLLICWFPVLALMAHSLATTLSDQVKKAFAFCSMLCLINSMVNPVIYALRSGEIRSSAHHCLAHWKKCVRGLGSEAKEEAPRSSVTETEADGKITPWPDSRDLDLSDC

| Compound | IC50 (radioligand displacement) (Human CB2) | Selectivity, CB2 vs. CB1 [1] |
| --- | --- | --- |
| CC(C)(C)c1ccc(C2c3cccnc3CCCN2C(=O)Nc2ccc(F)c(F)c2)cc1 (stereo not drawn) [Example 135, 5-(4-tert-Butylphenyl)-N-(3,4-difluorophenyl)-8,9-dihydro-5H-pyrido[3,2-c]azepine-6(7H)-carboxamide] | < 1000 nM | + (+ indicates > 10-fold) |
| CC(C)(C)c1ccc(C2c3cccnc3CCCN2C(=O)Nc2ccc(Cl)cc2Cl)cc1 (stereo not drawn) [Example 136, 5-(4-tert-Butylphenyl)-N-(2,4-dichlorophenyl)-8,9-dihydro-5H-pyrido[3,2-c]azepine-6(7H)-carboxamide] | > 1000 nM | + (+ indicates > 10-fold) |
| CC(C)(C)c1ccc(C2c3cccnc3OCCN2C(=O)Nc2ccc(F)cc2F)cc1 (stereo not drawn) [Example 138, 5-(4-tert-Butylphenyl)-N-(2,4-difluorophenyl)-2,3-dihydropyrido[3,2-f][1,4]oxazepine-4(5H)-carboxamide] | > 1000 nM | − (− indicates < 10-fold) |
| CC(C)(C)c1ccc(C2c3cccnc3OCCN2C(=O)Nc2ccc(F)c(F)c2)cc1 (stereo not drawn) [Example 139, 5-(4-tert-Butylphenyl)-N-(3,4-difluorophenyl)-2,3-dihydropyrido[3,2-f][1,4]oxazepine-4(5H)-carboxamide] | > 1000 nM | + (+ indicates > 10-fold) |
| CC(C)(C)c1ccc(C2c3cccnc3OCCN2C(=O)Nc2ccc(Cl)cc2Cl)cc1 (stereo not drawn) [Example 140, 5-(4-tert-Butylphenyl)-N-(2,4-dichlorophenyl)-2,3-dihydropyrido[3,2-f][1,4]oxazepine-4(5H)-carboxamide] | > 1000 nM | − (− indicates < 10-fold) |
| (8,9-cis)-9-Phenyl-N-(4-(trifluoromethyl)phenyl)-6,7,8,9-tetrahydro-5H-pyrrolo[1,2-a]azepine-8-carboxamide [Example 112] | > 1000 nM | − (− indicates < 10-fold) |
